In patent publication US20160264636A1, “PEPTIDE INHIBITORS OF TEAD/YAP-TAZ INTERACTION” (UNIVERSITE PIERRE ET MARIE CURIE (PARIS 6), priority 2013, published 2016):
Peptide text beside a SMILES is read from it.

How the values were obtained:
[1] = system: MP46 uveal melanoma cells; assay type: cell-based, human; conditions: 72 h
Protocol: (§1) The cytotoxicity of penetrating peptides or chemotherapeutic agents, alone or in combination, was evaluated by the (3-(4,5-dimethylthiazol-2-yl)-2,5-diphenyltetrazolium bromide) tetrazolium (MTT) reduction assay. The cells were seeded in 96-well plates (100 μL/well) at a cell density defined from growth curves. After 24 hours of incubation, cells were treated with the peptides for 72 hours. The wells were rinsed two times with RPMI. After washing, 10 μl of stock MTT solution (5 mg/ml; MTT (SIGMA #M-2128) in PBS Dubecco's 1× without Ca^2+ and Mg^2+) was added to a final volume of 100 μl of culture medium. Cell lines were incubated for additional 4 hours at 37° C. under humid atmosphere with 5% (v/v) CO2. The formation of blue formazan crystals was detected under a microscope. An equal volume of 10% SDS (MERCK, #926.238) in 10 mM HCl was added to each well and the plate was placed in the incubator overnight to dissolve formazan crystals. The plates were mixed to ensure complete solubilisation of formazan crystals and absorbance was measured at 570 nm and 620 nm. The percentage of viable cells was estimated using the formula: % cell viability=ΔOD(570-620) treated/ΔOD(570-620)control×100. […]
(§2) All the uveal melanoma cell lines were treated for 72 h with different concentrations of the peptides TAZ, “LV”, YAP and TEAD (SEQ ID NO: 35, 36, 37). Cytotoxicity was analysed as described in example 2. […]

[2] = system: MP66 uveal melanoma cells; assay: MTT cytotoxicity assay, MP66; assay type: cell-based, human; conditions: MM66 (so in the source); 100 μM; 72 h
Protocol: as §1, §2

[3] = system: MP41 uveal melanoma cells; assay: MTT cytotoxicity assay, MP41; assay type: cell-based, human; conditions: 72 h
Protocol: (§3) The cytotoxicity of penetrating peptides or chemotherapeutic agents, alone or in combination, was evaluated by the (3-(4,5-dimethylthiazol-2-yl)-2,5-diphenyltetrazolium bromide) tetrazolium (MTT) reduction assay. The cells were seeded in 96-well plates (100 μL/well) at a cell density defined from growth curves. After 24 hours of incubation, cells were treated with the peptides for 72 hours. The wells were rinsed two times with RPMI. After washing, 10 μl of stock MTT solution (5 mg/ml; MTT (SIGMA #M-2128) in PBS Dubecco's 1× without Ca^2+ and Mg^2+) was added to a final volume of 100 μl of culture medium. Cell lines were incubated for additional 4 hours at 37° C. under humid atmosphere with 5% (v/v) CO2. The formation of blue formazan crystals was detected under a microscope. An equal volume of 10% SDS (MERCK, #926.238) in 10 mM HCl was added to each well and the plate was placed in the incubator overnight to dissolve formazan crystals. The plates were mixed to ensure complete solubilisation of formazan crystals and absorbance was measured at 570 nm and 620 nm. The percentage of viable cells was estimated using the formula: % cell viability=ΔOD(570-620) treated/ΔOD(570-620)control×100.
MP41, MP46 and MP66 cell lines come from uveal melanoma patient derived xenografts. They were cultured in RPMI medium supplemented with 20% of FCS.
All the uveal melanoma cell lines were treated for 72 h with different concentrations of the peptides TAZ, “LV”, YAP and TEAD (SEQ ID NO: 35, 36, 37). Cytotoxicity was analysed as described in example 2. […] The best effect was shown in MP41 with about 40% cytotoxicity at 100 μM.

[4] = system: colon, lung and ovarian cancer cell lines; assay: MTT cytotoxicity, comparison of TAZ LV and VL peptides; assay type: cell-based, human; conditions: all lines tested except ES2: HCT116, HT29, SW480, OVCAR8, A549, HT1975; 72 h; 0.1 to 100 μM (FIGS. 5 to 8)
Protocol: as §3

ES2 cells = assay: MTT cytotoxicity assay, ES2; assay type: cell-based; conditions: 72 h, 0.1 to 100 μM (FIG. 7)
Protocol: as §3
ES2, IGROV-1, OVCAR8 and SKOV3 cell lines come from human ovarian cancer.
Cell-penetrating peptides (CPPs) comprising the binding site of TEAD to TAZ or YAP or of YAP to TEAD (TAZ, TEAD and YAP peptides, respectively) were chemically synthesized. The effect of the peptides on cell viability was assayed on several human ovarian cancer cell lines. All the ovarian cancer cell lines were treated for 72 h with different peptide concentrations. Cytotoxicity was analysed as described in example 2.

SMILES	IC50 [1]	cytotoxicity [2]	IC50 [3]	effect on cellular viability, TAZ “LV” compared with TAZ “VL” [4]	viability ([1]; human, 25 µM)	viability ([3]; human, 25 µM)	effect on cellular viability, TAZ “LV” compared with TAZ “VL” (ES2 cells)
CC[C@H](C)[C@H](NC(=O)[C@H](CCCCN)NC(=O)[C@H](CCCCN)NC(=O)[C@H](CCCCN)NC(=O)[C@H](CCCCN)NC(=O)[C@@H](N)C(C)C)C(=O)N[C@@H](CCCCN)C(=O)N[C@@H](C)C(=O)N[C@@H](CCC(=O)O)C(=O)N[C@H](C(=O)N[C@@H](CCCCN)C(=O)N[C@H](C(=O)N[C@@H](CCCNC(=N)N)C(=O)N[C@@H](CC(C)C)C(=O)N[C@@H](CCC(N)=O)C(=O)N[C@@H](CC(C)C)C(=O)N[C@H](C(=O)N[C@@H](CCC(=O)O)C(=O)N[C@@H](Cc1ccccc1)C(=O)N[C@@H](CO)C(=O)N[C@@H](C)C(=O)N[C@@H](Cc1ccccc1)C(=O)N[C@H](C(=O)N[C@@H](CCC(=O)O)C(=O)N1CCC[C@H]1C(=O)N1CCC[C@H]1C(=O)N[C@@H](CC(=O)O)C(=O)N[C@@H](C)C(=O)N[C@H](C(=O)N[C@@H](CC(=O)O)C(=O)O)C(C)C)C(C)C)C(C)C)[C@@H](C)CC)[C@@H](C)CC [TEAD] (H-VKKKKIKAEIKIRLQLVEFSAFVEPPDAVD-OH; N-terminus and C-terminus assumed)	44 µM	60%	35 µM	–	–	–	–
CC[C@H](C)[C@H](NC(=O)[C@H](CCCCN)NC(=O)[C@H](CCCCN)NC(=O)[C@H](CCCCN)NC(=O)[C@H](CCCCN)NC(=O)[C@@H](N)C(C)C)C(=O)N[C@@H](CCCCN)C(=O)N[C@@H](C)C(=O)N[C@@H](CCC(=O)O)C(=O)N[C@H](C(=O)N[C@@H](CCCCN)C(=O)N[C@H](C(=O)N1CCC[C@H]1C(=O)N1CCC[C@H]1C(=O)N[C@@H](Cc1c[nH]cn1)C(=O)N[C@@H](C)C(=O)N[C@@H](Cc1ccccc1)C(=O)N[C@@H](Cc1ccccc1)C(=O)N[C@@H](CC(C)C)C(=O)N[C@H](C(=O)N[C@@H](CCCCN)C(=O)N[C@@H](Cc1ccccc1)C(=O)N[C@@H](Cc1c[nH]c2ccccc12)C(=O)N[C@@H](C)C(=O)N[C@@H](CC(=O)O)C(=O)N[C@@H](CC(C)C)C(=O)N[C@@H](CC(N)=O)C(=O)N[C@@H](Cc1c[nH]c2ccccc12)C(=O)NCC(=O)N1CCC[C@H]1C(=O)N[C@@H](CO)C(=O)NCC(=O)N[C@@H](CCC(=O)O)C(=O)N[C@@H](CCC(=O)O)C(=O)N[C@@H](C)C(=O)NCC(=O)N[C@@H](C)C(=O)NCC(=O)O)C(C)C)[C@@H](C)CC)[C@@H](C)CC [TAZ “LV”] (H-VKKKKIKAEIKIPPHAFFLVKFWADLNWGPSGEEAGAG-OH; N-terminus and C-terminus assumed)	–	–	–	same effect	about 20%	about 20%	more effective than TAZ “VL”
